From US20250017907A1, “METHOD FOR PREVENTING AND/OR TREATING LIVER FIBROSIS BY USING 6-METHOXYBENZOXAZOLINONE AND COIX LACHRYMA-JOBI L. EXTRACT COMPRISING 6-METHOXYBENZOXAZOLINONE” (Taichung District Agricultural Research and Extension …, priority 2023, published 2025)

Legend:
[1] = test system: TGF-β1-activated HSC-T6 cells; experiment: Real-time PCR of inflammatory factors; assay type: cell-based, rat; details: HSC-T6, TGF-β1 10 ng/mL, 24 h
Source text: The procedure of real-time PCR analysis is as follows. Total RNA was extracted with the Trizol reagent (Ambion, USA) and then reverse-transcribed into cDNA with RevertAid First Strand cDNA Synthesis kit (Thermo Scientific, USA). The PCR amplification was accomplished with SYBR Green PCR Master Mix (Applied Biosystems, USA), and the mRNA expression of the gene was normalized to GAPDH. All primers were obtained from Genomics (Genomics, Taiwan). Rat primer sequences are used for real-time PCR of HSC-T6 cells, and mouse primer sequences are used for real-time PCR of C57BL/6J mice.
(§1) The procedure of cell cultures is as follows. HSC-T6 cell is an immortalized cell line isolated from transformed SV40 large T-antigen transformed primary stellate cells of male Sprague-Dawley rats. HSC-T6 cells were maintained in Dulbecco's Modified Eagle Medium (DMEM, Sigma-Aldrich, USA) containing 8% fetal bovine serum (FBS, HyClone, USA), 100 U/mL of penicillin, and 100 μg/mL of streptomycin (Gibco, USA).
(§2) For hepatic stellate cell (HSC) activation, cells were cultured for 24 h and then replaced with serum-free medium for 24 h, after that, treated with transforming growth factor beta 1 (TGF-β1) (10 ng/mL) in the presence or absence of CX (10-100 μM) or adlay leaf, root, and seed extracts (25 and 50 μg/mL) for 24 h, or 30 min for intracellular signal pathways.

[2] = test system: TGF-β1-activated HSC-T6 cells; experiment: ROS detection assay (DCFDA); assay type: cell-based, rat; details: HSC-T6, TGF-β1, CX 10-100 μM, with increasing doses
Description: as §1, §2
The procedure of ROS detection assay is as follows. 2′,7′-Dichlorofluorescein diacetate (DCFDA), a cell-permeable fluorogenic probe, is usually used to detect ROS and nitric oxide in live cells. DCFDA rapidly de-esterifies to form fluorescent 2′,7′-dichlorofluorescein (DCF) when it is oxidized by ROS in cells. For ROS detection, cells were seeded in the 96-well plate for 24 h, then starvation (culture in serum-free medium) and drug treatment, followed by changing the medium with DCFDA solution for 30 min, and detecting the excitation/emission spectra of 485/525 nm by multimode microplate readers (TECAN, Switzerland).

[3] = test system: TAA-induced liver fibrotic C57BL/6J mice; experiment: Serum biochemical analysis (liver function and nutrient metabolism); assay type: in vivo; details: CX groups (20 and 50 mg/kg oral, 6 weeks); vs TAA group
Description: For tests of adlay extracts, mice were randomly divided into the following seven groups (n=6, per group): (1) No treatment group (NT, normal diet), (2) Thioacetamide group (TAA, 200 mg/kg, normal diet), (3) 10% adlay seed powder (ASP) group, (4) 1% adlay leaf powder (ALP) group, (5) 1% adlay seed polysaccharide (ASPS) group, (6) 0.025% adlay seed ethanolic extract (ASE) group and (7) 0.1% ASE group. NT group received pure saline, and other groups intraperitoneally injected with TAA dissolved into saline thrice a week.
For tests of CX, mice were randomly divided into the following four groups (n=8, per group): (1) NT group, (2) TAA group (200 mg/kg), (3) CX group (CX20, 20 mg/kg), and (4) CX group (CX50, 50 mg/kg). NT group received pure saline, and other groups intraperitoneally injected with TAA dissolved into saline thrice a week. Moreover, NT group and TAA group also received 5% propylene glycol, while CX groups received CX dissolved into 5% propylene glycol (prepared in 0.9% saline) by oral gavage once per day.
At the end of the experiment, the mice were sacrificed. Serum was obtained from the whole blood of mice after centrifuging and stored at −80° C., and the liver tissues were collected and used for the tissue histological staining.
The procedure of biochemical analysis is as follows. The levels of serum alanine aminotransferase (ALT), aspartate aminotransferase (AST), total bilirubin (TBIL), alkaline phosphatase (ALP), total cholesterol (TC), total glyceride (TG), and glucose were measured with the chemistry analyzer. Briefly, after centrifuging the whole blood from mice, collected the serum, dropped the serum at the tested chips for analysis with an Automated Clinical Chemistry Analyzer (Fuji, Japan).

[4] = test system: PI3K and ERK signaling pathway; experiment: Western blot of PI3K and ERK signaling pathway; assay type: cell-based, rat; details: TGF-β1-activated HSC-T6 cells, CX
Description: as §1, §2
The procedure of Western blot analysis is as follows. Cells were lysed in RIPA buffer with protease inhibitor and then centrifuged at 4° C., 12000 rpm for 10 min. Collected the supernatant and quantified the total protein concentration to 50 μg. After heating at 95° C. for 10 min, the protein samples were separated by SDS-PAGE gel, transferred to PVDF membrane, followed by blocking with 6% milk, incubated with primary antibodies at 4° C., overnight and secondary antibodies at room temperature for 1 h. Blot images were visualized on Amersham Imager 680 (Cytiva, USA) with ECL agent (GeneDireX, USA).

HSC-T6 cells = experiment: MTT cell viability assay; assay type: cell-based, rat; details: 0-800 μM, 24 h
Description: as §1
The procedure of cell viability assay is as follows. HSC-T6 cells were seed at 1.5×10^4 in 96-well plates and were incubated with CX (0-800 μM) or adlay extracts (0-800 μg/mL) for 24 h. Followed by the determination of cell viability with MTT [3-(4,5-Dimethyl-2-thiazolyl)-2,5-diphenyl-2H-tetrazolium bromide] (Sigma-Aldrich, USA). Briefly, MTT was added to each well at a final concentration of […] and was incubated at 37° C. for 1 h. Next, removed the MTT and added the DMSO to dissolve MTT-formazan crystals formed by metabolically viable cells. Finally, the absorbance of each well was detected by a spectrophotometer at the wavelength of 570 nm.

COc1ccc2[nH]c(=O)oc2c1 [CX, 6-methoxybenzoxazolinone]
TGF-β1-induced IL-6 mRNA level ([1]; CX 10, 20, 50, 100 μM): dose-dependently decreased | TGF-β1-induced TNF-α mRNA level ([1]; CX 10, 20, 50, 100 μM): dose-dependently decreased | IL-10 mRNA level ([1]; CX at the highest dose (100 μM)): significantly increased | TGF-β1-induced ROS levels (DCFDA) [2]: reduced | changes in serum TC level caused by TAA [3]: significantly reduced | changes in serum TG level caused by TAA [3]: significantly reduced | changes in serum glucose level caused by TAA [3]: significantly reduced | serum ALP [3]: decreased significantly | serum ALT [3]: decreased significantly | serum AST [3]: decreased significantly | serum TBIL [3]: decreased significantly | phosphorylation of ERK (p-ERK1/2, Western blot) [4]: did not cause significant changes | phosphorylation of PI3K (p-PI3K, Western blot) [4]: did not cause significant changes | dose with no significant effects on cell viability (HSC-T6 cells): below 400 μM
